Laboratory results published in US7879876B2, “Sulfonamide derivatives and use thereof for the modulation of metalloproteinases” (Merck Serono SA, priority 2005, dated 2011).
pIC50: −log10 of the molar value.

Key:
human ADAM17 (TACE) = human ADAM17 (TACE) (Homo sapiens, UniProt P78536); assay: TACE enzyme inhibition assay; assay type: biochemical
Procedure: Compounds of the invention were tested to assess their activities as inhibitors of MMP-1, MMP-2, MMP-9, MMP-14, MMP-12 and TACE. MMP-9 Assay Protocol
Compounds of the invention can be tested for inhibitory activity against human ADAM17 in an assay using human Mca-(endo-1a-Dap(Dnp)-TNF-alpha(−5 to +6)amide as substrate (FEBS Letters, 2000, 275-279).
Stock solutions are prepared as followed: • Assay Buffer: 20 mM Hepes pH 7.5 (Fluka) containing 0.05% Brij 35 (Fluka) • Substrate: 6.1 mM human Mca-(endo-1a-Dap(Dnp)-TNF-alpha(−5 to +6)amide (Bachem) stock solution in 100% DMSO (stored at −20° C.); diluted to 5 μM in assay buffer. • Enzyme: Recombinant human ADAM17, appropriately diluted in assay buffer (1.5 μg/ml).
Test Compounds are prepared initially as 10 mM compound solution in 100% DMSO, diluted to 1 mM in 100% DMSO, then serially diluted 3-fold in 100% DMSO across a 96-well microtitre plate. Assay concentration range is typically between 100 μM to 0.01 nM. The assay is performed in a total volume of 100 μL per well in 96-well microtitre plates. Appropriate concentrations of test compounds dissolved in 10 μL of DMSO are added to the wells, followed by substrate solution (50 μL, 5 μM prepared by dilution of DMSO stock in assay buffer) and enzyme solution (40 μL). For each as say ten concentrations of test compound are examined in […]. Control wells lack either enzyme or test compound. The reactions are incubated at room temperature for 1.5 hours. The fluorescence at 405 nm is measured immediately with a fluorometer using 355 nm excitation, without stopping the reaction.
The effect of the test compound is determined from the dose response curve generated by the 10 duplicate concentrations of inhibitor. The IC50 (the concentration of compound required to give a 50% decrease in enzyme activity) is obtained by fitting data to the equation, Y=a+((b−a)/(1+(c/X)^d)). (Y=inhibition achieved for a particular dose; X=the dose in nM; a=minimum y or zero % inhibition; b=maximum y or 100% inhibition; c=is the IC50; d=is the slope). The result is rounded to one significant figure.

collagenase (MMP-1) = target: T1, collagenase (MMP-1) (Homo sapiens, UniProt P03956); assay: MMP-1 enzyme inhibition assay (coumarin-labelled peptide substrate); assay type: biochemical; conditions: read-out: percentage inhibition MMP1
T1 sequence (P03956 100-469): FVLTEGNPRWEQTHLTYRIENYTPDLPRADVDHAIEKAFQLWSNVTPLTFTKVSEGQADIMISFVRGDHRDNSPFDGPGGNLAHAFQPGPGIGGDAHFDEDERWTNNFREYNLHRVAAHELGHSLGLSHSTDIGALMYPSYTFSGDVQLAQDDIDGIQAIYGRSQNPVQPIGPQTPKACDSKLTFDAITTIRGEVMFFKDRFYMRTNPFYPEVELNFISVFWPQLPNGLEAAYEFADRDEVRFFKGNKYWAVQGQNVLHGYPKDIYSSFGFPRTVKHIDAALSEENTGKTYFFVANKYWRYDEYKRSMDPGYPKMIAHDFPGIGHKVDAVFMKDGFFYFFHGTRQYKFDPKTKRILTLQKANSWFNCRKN
Summary of the method: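 Recombinant human MMP-1, APMA-activated if needed, in Tris-HCl pH 7.6 with NaCl, CaCl2 and 0.05% Brij 35; McaPLGLDpaAR substrate added as 8 μM solution, 2 h at 37 °C. Fluorescence (320/405 nm) read without stopping; IC50 from 10 duplicate concentrations (100 μM–5.1 nM) by four-parameter fit.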

Sequence of human ADAM17 (TACE) (P78536 215-824): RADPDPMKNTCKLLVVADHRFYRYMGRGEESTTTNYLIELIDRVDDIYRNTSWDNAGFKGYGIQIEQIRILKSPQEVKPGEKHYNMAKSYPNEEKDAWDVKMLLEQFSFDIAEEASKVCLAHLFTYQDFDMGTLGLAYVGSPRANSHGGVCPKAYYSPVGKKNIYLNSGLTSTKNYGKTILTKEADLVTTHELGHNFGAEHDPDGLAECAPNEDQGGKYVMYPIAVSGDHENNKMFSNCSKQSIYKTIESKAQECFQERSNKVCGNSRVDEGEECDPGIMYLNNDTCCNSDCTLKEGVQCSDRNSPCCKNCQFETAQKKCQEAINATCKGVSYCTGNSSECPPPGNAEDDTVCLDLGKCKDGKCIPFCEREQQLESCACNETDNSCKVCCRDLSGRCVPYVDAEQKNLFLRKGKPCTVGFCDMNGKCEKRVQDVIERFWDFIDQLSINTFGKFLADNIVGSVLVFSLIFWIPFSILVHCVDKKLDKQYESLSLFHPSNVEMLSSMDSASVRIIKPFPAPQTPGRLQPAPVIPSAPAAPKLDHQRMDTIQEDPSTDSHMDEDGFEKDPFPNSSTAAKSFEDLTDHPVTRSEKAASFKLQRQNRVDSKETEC

Structure (SMILES)	pIC50 (human ADAM17 (TACE))	inhibition at 0.1 µM (collagenase (MMP-1))	inhibition at 5 µM (collagenase (MMP-1))
CC(C)(C)CC(CS(=O)(=O)N1Cc2ccc(F)cc2C1)N(O)C=O (stereo not drawn) [Example 26, N-(1-{[(5-fluoro-1,3-dihydro-2H-isoindol-2-yl)sulfonyl]methyl}-3,3-dimethylbutyl)-N-hydroxyformamide]	5.96	17%	92%
O=CN(O)[C@H](CS(=O)(=O)N1CCc2ccc(C(F)(F)F)cc2C1)[C@H]1CCCO1 [Example 27, N-hydroxy-N-((1S)-1-[(2R)-tetrahydrofuran-2-yl]-2-{[7-(trifluoromethyl)-3,4-dihydroisoquinolin-2(1H)-yl]sulfonyl}ethyl)formamide]	6.30		30%
CC1(C)OC[C@H](C(CS(=O)(=O)N2CCc3ccc(C(F)(F)F)cc3C2)N(O)C=O)O1 (stereo partly drawn) [Example 28, N-(1-[(4S)-2,2-dimethyl-1,3-dioxolan-4-yl]-2-{[7-(trifluoro-methyl)-3,4-dihydroisoquinolin-2(1H)-yl]sulfonyl}ethyl)-N-hydroxyformamide]	5.89		18%
CCC#CCC(C)(C)C(CS(=O)(=O)N1CCc2cc(C(F)(F)F)ccc2C1)N(O)C=O (stereo not drawn) [Example 30, N-[2,2-dimethyl-1-({[6-(trifluoromethyl)-3,4-dihydro-isoquinolin-2(1H)-yl]sulfonyl}methyl)hept-4-yn-1-yl]-N-hydroxyformamide]	< 5.30		8%
CC(C)(Cc1ccccc1)C(CS(=O)(=O)N1CCc2cc(C(F)(F)F)ccc2C1)N(O)C=O (stereo not drawn) [Example 31, N-[2,2-dimethyl-3-phenyl-1-({[6-(trifluoromethyl)-3,4-dihydroisoquinolin-2(1H)-yl]sulfonyl}methyl)propyl]-N-hydroxyformamide]	< 5.30		10%
O=CN(O)[C@@H](CS(=O)(=O)N1CCc2ccc(C(F)(F)F)cc2C1)[C@H]1CCCO1 [Example 32, N-hydroxy-N-((1R)-1-[(2R)-tetrahydrofuran-2-yl]-2-{[7-(trifluoromethyl)-3,4-dihydroisoquinolin-2(1H)-yl]sulfonyl}ethyl)formamide]	< 5.30		4%
COc1ccc2c(c1)CN(S(=O)(=O)CC(CCC1CCCO1)N(O)C=O)CC2 (stereo not drawn) [Example 33, N-hydroxy-N-[1-{[(7-methoxy-3,4-dihydroisoquinolin-2(1H)-yl)sulfonyl]methyl}-3-(tetrahydrofuran-2-yl)propyl]formamide]	6.37		4%
CCC(CC)C(CS(=O)(=O)N1CCc2cc(C(C)C)ccc2C1)N(O)C=O (stereo not drawn) [Example 35, N-(2-ethyl-1-{[(6-isopropyl-3,4-dihydroisoquinolin-2(1H)-yl)sulfonyl]methyl}butyl)-N-hydroxyformamide]	< 5.30		6%
CCC(CC)C(CS(=O)(=O)N1CCc2cc(C(F)(F)F)ccc2C1)N(O)C=O (stereo not drawn) [Example 37, N-[2-ethyl-1-({[6-(trifluoromethyl)-3,4-dihydroisoquinolin-2(1H)-yl]sulfonyl}methyl)butyl]-N-hydroxyformamide]	5.96		36%
CCCOc1ccc2c(c1)CN(S(=O)(=O)CC(CC(C)(C)C)N(O)C=O)CC2 (stereo not drawn) [Example 40, N-(3,3-dimethyl-1-{[(7-propoxy-3,4-dihydroisoquinolin-2(1H)-yl)sulfonyl]methyl}butyl)-N-hydroxyformamide]	5.95		2%
CC(C)(C)CC(CS(=O)(=O)N1CCc2cc(Cl)c(Cl)cc2C1)N(O)C=O (stereo not drawn) [Example 42, N-(1-{[(6,7-dichloro-3,4-dihydroisoquinolin-2(1H)-yl)-sulfonyl]methyl}-3,3-dimethylbutyl)-N-hydroxyformamide]	6.21		29%
CC(C)(C)CC(CS(=O)(=O)N1CCc2cc(C(F)(F)F)ccc2C1)N(O)C=O (stereo not drawn) [Example 43, N-[3,3-dimethyl-1-({[6-(trifluoromethyl)-3,4-dihydro-isoquinolin-2(1H)-yl]sulfonyl}methyl)butyl]-N-hydroxyformamide]	< 5.30		53%
CC(C)c1ccc2c(c1)CCN(S(=O)(=O)C[C@H]([C@H]1CCCO1)N(O)C=O)C2 [Example 45, N-hydroxy-N-{(1S)-2-[(6-isopropyl-3,4-dihydroisoquinolin-2(1H)-yl)sulfonyl]-1-[(2R)-tetrahydrofuran-2-yl]ethyl}formamide]	6.09		2%
O=CN(O)C(CS(=O)(=O)N1CCc2cc(C(F)(F)F)ccc2C1)[C@H]1CCCO1 (stereo partly drawn) [Example 47, N-hydroxy-N-(1-[(2R)-tetrahydrofuran-2-yl]-2-{[6-(tri-fluoromethyl)-3,4-dihydroisoquinolin-2(1H)-yl]sulfonyl}ethyl)formamide]	6.03		40%

The next compounds have a higher pIC50 (human ADAM17 (TACE)) than those just listed; values first:

pIC50 (human ADAM17 (TACE))	inhibition at 0.1 µM (collagenase (MMP-1))	inhibition at 5 µM (collagenase (MMP-1))	Structure (SMILES)
6.40		0%	CC(C)C(CS(=O)(=O)N1CCc2ccc(-c3ccc(F)cc3)cc2C1)N(O)C=O (stereo not drawn) [Example 50, N-[1-({[7-(4-fluorophenyl)-3,4-dihydroisoquinolin-2(1H)-yl]sulfonyl}methyl)-2-methylpropyl]-N-hydroxyformamide]
6.45		12%	CCC(CC)C(CS(=O)(=O)N1CCc2cc(Cl)c(Cl)cc2C1)N(O)C=O (stereo not drawn) [Example 34, N-(1-{[(6,7-dichloro-3,4-dihydroisoquinolin-2(1H)-yl)-sulfonyl]methyl}-2-ethylbutyl)-N-hydroxyformamide]
6.56	22%	94%	O=CN(O)[C@H](CS(=O)(=O)N1Cc2ccc(F)cc2C1)[C@H]1CCCO1 [Example 29, N-{(1S)-2-[(5-fluoro-1,3-dihydro-2H-isoindol-2-yl)-sulfonyl]-1-[(2R)-tetrahydrofuran-2-yl]ethyl}-N-hydroxyformamide]
6.56		17%	CCC(CC)C(CS(=O)(=O)N1CCc2ccc(OC)cc2C1)N(O)C=O (stereo not drawn) [Example 38, N-(2-ethyl-1-{[(7-methoxy-3,4-dihydroisoquinolin-2(1H)-yl)sulfonyl]methyl}butyl)-N-hydroxyformamide]
6.57		26%	O=CN(O)C(CCO)CS(=O)(=O)N1CCc2ccc(Cl)cc2C1 (stereo not drawn) [Example 48, N-(1-{[(7-chloro-3,4-dihydroisoquinolin-2(1H)-yl)sulfonyl]-methyl}-3-hydroxypropyl)-N-hydroxyformamide]
6.62		29%	O=CN(O)C(CO)CS(=O)(=O)N1CCc2cc(Cl)c(Cl)cc2C1 (stereo not drawn) [Example 49, N-[2-[(6,7-dichloro-3,4-dihydroisoquinolin-2(1H)-yl)-sulfonyl]-1-(hydroxymethyl)ethyl]-N-hydroxyformamide]
6.64		41%	CCC(CC)C(CS(=O)(=O)N1CCc2ccc(Br)cc2C1)N(O)C=O (stereo not drawn) [Example 36, N-(1-{[(7-bromo-3,4-dihydroisoquinolin-2(1H)-yl)sulfonyl]-methyl}-2-ethylbutyl)-N-hydroxyformamide]
6.72		54%	CC(C)(C)CC(CS(=O)(=O)N1CCc2ccc(Cl)cc2C1)N(O)C=O (stereo not drawn) [Example 41, N-(1-{[(7-chloro-3,4-dihydroisoquinolin-2(1H)-yl)sulfonyl]-methyl}-3,3-dimethylbutyl)-N-hydroxyformamide]
6.77		25%	CC(C)C(CS(=O)(=O)N1CCc2cc(Cl)c(Cl)cc2C1)N(O)C=O (stereo not drawn) [Example 39, N-(1-{[(6,7-dichloro-3,4-dihydroisoquinolin-2(1H)-yl)-sulfonyl]methyl}-2-methylpropyl)-N-hydroxyformamide]
